Series [1] in a line: log P determination by LC-MS in the acidic range. In kind it is physicochemical. From the text: The LC-MS determination in the acidic range is effected at pH 2.7 using 0.1% aqueous formic acid and acetonitrile (contains 0.1% formic acid) as eluents, linear gradient from 10% acetonitrile to 95% acetonitrile. Alternatively, the determination is effected in the acidic range at pH 2.3 using 0.1% aqueous phosphoric acid and acetonitrile as eluents; linear gradient from 10% acetonitrile to 95% acetonitrile.

Another series relates to Myzus persicae. In words: Myzus persicae - sachet test. The following applies: 100% = all animals killed. The format is in vivo. As to the method: Myzus persicae—Sachet Test Solvent: 2% by vol. of N-methylpyrrolidone • 2% by vol. of diacetone alcohol To produce an appropriate active ingredient formulation, the active ingredient is mixed with the specified amounts of solvent and the concentrate is diluted to the desired concentration with water. The active ingredient formulation is added to a specific nutrient medium in the desired concentration by pipetting. This plate is sealed and combined with a further plate populated with the green peach aphid (Myzus persicae). After the desired time, the kill in % is determined. 100% means that all the animals have been killed; 0% means that no animals have been killed.

Where [2] appears, read: amines of the formula (II-1), acidic range pH 2.7 (0.1% formic acid/acetonitrile) or pH 2.3 (0.1% phosphoric acid/acetonitrile).
Where [3] appears, read: Table 2, compounds of the formula (I-2), acidic range pH 2.7 or pH 2.3.
The mark [4] stands for this setting: pH 2.7, values given in the synthesis examples and NMR lists, read-out: HPLC-MS: log P.
[5] abbreviates: Table 3, HPLC on reversed-phase column (C 18), 55° C., acidic range (pH 2.7 or pH 2.3).
The mark [6] stands for this setting: application rate of 30 ppm in nutrient medium.
Setting [7] is: Table 4, HPLC on reversed-phase column (C 18), 55° C., acidic range (pH 2.7 or pH 2.3).
[8] abbreviates: pH 2.7, amines of the formula (II-1), acidic range pH 2.7 (0.1% formic acid/acetonitrile) or pH 2.3 (0.1% phosphoric acid/acetonitrile), read-out: log P (acid).
[9] abbreviates: application rate of 6 ppm in nutrient medium.

Read-outs that look alike come from different tables or passages of the source.

On to `Cc1cc(N)nn1CSc1ncccn1` [II-1-51], for which the “log P (acid)” value in series [1] (setting [2]) turned out to be 0.49.
For the molecule `Cc1ccn(Cn2nc(N)cc2C)n1` [II-1-38], in series [1] (setting [2]), the “log P (acid)” value was determined as 0.55.
As to `Cc1nc(NC(=O)c2cccnc2)nn1C(C)C` [Compound I-2-20], the “log P (acid)” value in series [1] (setting [3]) is 0.44.
For `Cn1nc(NC(=O)c2cncc(F)c2)cc1OC(F)F` [Compound I-1-112, N-[5-(Difluoromethoxy)-1-methyl-1H-pyrazol-3-yl]-5-fluoronicotinamide], the chromatographic logP in series [1] (pH 2.7, LC-MS in the acidic range, read-out: log P (acid)) is 1.56; in series [1] (setting [4]), 1.56.
Consider `Nc1ccn(Cc2ccc(Cl)nc2)n1` [II-1-3], for which the “log P (acid)” value in series [1] (setting [2]) stood at 0.56.
On to `Nc1cc(C(F)(F)F)n(Cc2ncccn2)n1` [II-1-35], for which the “log P (acid)” value in series [1] (setting [2]) is given as 1.06.
With `O=C(Nc1nn(-c2ncccc2Cl)nc1Cl)c1cccnc1` [Compound I-3-21], the “log P (acid)” value in series [1] (setting [5]) came out at 1.51.
On to `Cc1cc(NC(=O)c2cncc(Br)c2)nn1Cc1cccc(F)c1` [Compound I-1-107], for which the “log P (acid)” value in series [1] (LC-MS in the acidic range) came out at 2.71.
As to `O=C(Nc1ccn(Cc2ccc(Cl)cc2Cl)n1)c1cccnc1` [Compound I-1-82], in the series with Myzus persicae (setting [6]), the “efficacy (kill in %)” value was determined as 100%.
In the case of `O=C(Nc1ncn(Cc2c(Cl)cccc2Cl)n1)c1cccnc1` [Compound I-2-8], in series [1] (setting [3]), the “log P (acid)” value came out at 1.39.
As to `COc1nn(Cn2nc(NC(=O)c3ccnnc3)cc2C)c(=O)n1C1CC1` [Compound I-1-152], in series [1] (LC-MS in the acidic range), the “log P (acid)” value was determined as 1.17.
As for `Cc1cc(N)nn1Cn1nc(C)n(C2CC2)c1=O` [II-1-49], the “log P (acid)” value in series [1] (setting [2]) was found to be 0.43.
Consider `CCOC(=O)Cn1nc(NC(=O)c2cncc(F)c2)cc1C` [Compound I-1-59], for which the “log P (acid)” value in series [1] (LC-MS in the acidic range) was 1.53.
Regarding `COc1nn(Cn2nc(N)cc2C)c(=O)n1C1CC1` [II-1-47], the “log P (acid)” value in series [1] (setting [2]) is 0.72.
Still for that read-out and setting: then `Cc1cc(N)nn1C(C)C#N` (stereo not shown) [II-1-64], with 0.02.
With `Cc1cc(NC(=O)c2cccnc2)nn1-c1ccc(Cl)c(Cl)c1` [Compound I-1-206], the “log P (acid)” value in series [1] (LC-MS in the acidic range) amounted to 2.59.
Turning to `Cc1cc(N)nn1Cc1cccnc1` [II-1-28], the “log P (acid)” value in series [1] (setting [2]) is on record as under −0.23.
In the case of `O=C(Nc1nn(-c2ccc(Cl)cc2Cl)nc1C(F)(F)F)c1cccnc1` [Compound I-3-8], in series [1] (setting [5]), the “log P (acid)” value turned out to be 2.97.
For the molecule `Cc1cn(Cc2ncccn2)nc1N` [4-Methyl-1-(pyrimidin-2-ylmethyl)-1H-pyrazole-3-amine], in series [1] (setting [4]), the chromatographic logP was -0.22.
For the molecule `COC(=O)c1cc(C)n(Cc2ncccn2)n1` [Methyl 5-methyl-1-(pyrimidin-2-ylmethyl)-1H-pyrazole-3-carboxylate], in series [1] (setting [4]), the chromatographic logP turned out to be 0.98.
Still for that read-out and setting: then `Cc1cc(C(=O)O)nn1Cc1ncccn1` [5-Methyl-1-(pyrimidin-2-ylmethyl)-1H-pyrazole-3-carboxylic acid], with 0.45.
As for `Cc1ccnc(Cn2nc(N)cc2C)n1` [II-1-16], the “log P (acid)” value in series [1] (setting [2]) is given as 0.02.
For the molecule `CCCNS(=O)(=O)n1nc(NC(=O)c2cccnc2)cc1C` [Compound I-1-258], the “log P (acid)” value in series [1] (LC-MS in the acidic range) amounted to 1.07.
`Cc1cc(N)nn1CCCl` [II-1-13]: in series [1] (setting [2]), the “log P (acid)” value turned out to be 0.13.
Regarding `Cc1c[nH]nc1N1C(=O)c2ccccc2C1=O` [2-(4-Methyl-1H-pyrazol-3-yl)-1H-isoindole-1,3(2H)-dione], the chromatographic logP in series [1] (setting [4]) stood at 1.34.
Turning to `O=C(Nc1ncn(-c2ncccc2Br)n1)c1cccnc1` [Compound I-2-15], in series [1] (setting [3]), the “log P (acid)” value worked out at 0.67.
For `O=C1c2ccccc2C(=O)N1c1cc(Br)n(Cc2ncccn2)n1` [2-[5-Bromo-1-(pyrimidin-2-ylmethyl)-1H-pyrazol-3-yl]-1H-isoindole-1,3(2H)-dione], the chromatographic logP in series [1] (setting [4]) worked out at 2.02.
In the case of `CSCn1nc(N)cc1C` [II-1-60], in series [1] (setting [2]), the “log P (acid)” value is 0.14.
In the case of `Cc1ccc(-n2nc(NC(=O)c3cccnc3)cc2C)cc1` [Compound I-1-193], in series [1] (LC-MS in the acidic range), the “log P (acid)” value is reported as 2.02.
Take `Cc1cc(NC(=O)c2ccnnc2)nn1Cn1nc(C)n(C2CC2)c1=O` [Compound I-1-151]: the “log P (acid)” value in series [1] (LC-MS in the acidic range) worked out at 0.92.
With `COc1cc(OC)nc(-n2nnc(NC(=O)c3cccnc3)n2)n1` [Compound I-4-4], the “log P (acid)” value in series [1] (setting [7]) is listed as 1.35.
Turning to `N#Cc1ccccc1-n1ccc(NC(=O)c2cccnc2)n1` [Compound I-1-117], the “log P (acid)” value in series [1] (LC-MS in the acidic range) was found to be 1.42.
Same read-out and setting: then `Cc1cc(NC(=O)c2ccc(Cl)nc2)nn1Cc1ccccc1` [Compound I-1-98], with 2.48.
With `CCCn1cnc(NC(=O)c2cccnc2)n1` [Compound I-2-21], the “log P (acid)” value in series [1] (setting [3]) is recorded as 0.29.
`Cc1cc(NC(=O)c2cccnc2)nn1CC(=O)O` [Compound I-1-115]: the “log P (acid)” value in series [1] (LC-MS in the acidic range) is 0.09.
The same measure, in the same setting: then `COc1cc(OC)nc(Cn2nc(NC(=O)c3ccnnc3)cc2C)n1` [Compound I-1-252], with 1.5.
For `O=C(Nc1cnn(-c2ncc(Cl)cc2Cl)n1)c1cccnc1` [Compound I-3-15], the “log P (acid)” value in series [1] (setting [5]) was 1.83.
On to `Cn1nc(NC(=O)c2cccnc2)c(Cl)c1OC(F)F` [Compound I-1-275], for which the “log P (acid)” value in series [1] (LC-MS in the acidic range) stood at 1.19.
As to `O=C(Nc1ncn(Cc2ccc(Cl)cc2)n1)c1cccnc1` [Compound I-2-13], the “log P (acid)” value in series [1] (setting [3]) is 1.36.
Consider `CCSCn1nc(N)cc1C` [II-1-61, 1-[(Ethylsulphanyl)methyl]-5-methyl-1H-pyrazole-3-amine], for which the chromatographic logP in series [1] (setting [8]) and in series [1] (setting [4]) was 0.63 each time.
Consider `O=C1c2ccccc2C(=O)N1c1cc(Br)[nH]n1` [2-(5-Bromo-1H-pyrazol-3-yl)-1H-isoindole-1,3(2H)-dione], for which the chromatographic logP in series [1] (setting [4]) turned out to be 1.83.
Regarding `Cc1cc(N)nn1Cc1ccncc1` [II-1-18], the “log P (acid)” value in series [1] (setting [2]) stood at 0.45.
As for `Cn1nc(N)cc1C(F)F` [II-1-40], the “log P (acid)” value in series [1] (setting [2]) stood at 0.22.
Regarding `Cc1cc(NC(=O)c2cnc(Cl)c(Cl)c2)nn1Cc1ccccc1F` [Compound I-1-103], in series [1] (LC-MS in the acidic range), the “log P (acid)” value is 3.28.
The same measure, in the same setting: then `Cc1cc(NC(=O)c2ccnnc2)nn1Cn1ccc(C(F)(F)F)n1` [Compound I-1-255], with 1.73.
Take `CCOC(=O)Cn1ccc(NC(=O)c2cccnc2)n1` [Compound I-1-69]: the “efficacy (kill in %)” value in the series on Myzus persicae (setting [6]) is reported as 100%.
For `Cc1cc(N)nn1CN1CCCNC1=O` [II-1-57], the “log P (acid)” value in series [1] (setting [2]) is under −0.23.
Turning to `Cc1cc(N)nn1-c1ncccn1` [5-Methyl-1-(pyrimidin-2-yl)-1H-pyrazole-3-amine], the chromatographic logP in series [1] (setting [4]) is 0.5.
Take `Cc1nn(-c2ccccc2Cl)nc1NC(=O)c1cccnc1` [Compound I-3-23]: the “log P (acid)” value in series [1] (setting [5]) came to 1.71.
`Nc1ccn(C(CF)CF)n1` [II-1-7]: the “log P (acid)” value in series [1] (setting [2]) is reported as −0.09.
In the case of `CSc1c(Cl)c(NC(=O)c2cccnc2)nn1C` [Compound I-1-201], the “log P (acid)” value in series [1] (LC-MS in the acidic range) was found to be 1.25.
With `Cc1c(Br)c(N)nn1Cc1ncccn1` [II-1-34], in series [1] (setting [2]), the “log P (acid)” value was 0.92.
For `C#CCn1nc(N)cc1CC` [II-1-17], in series [1] (setting [2]), the “log P (acid)” value came out at 0.46.
`Nc1cc(Br)n(Cc2ncccn2)n1` [II-1-30, 5-Bromo-1-(pyrimidin-2-ylmethyl)-1H-pyrazole-3-amine]: the chromatographic logP in series [1] (setting [8]) and in series [1] (setting [4]) was 0.56 throughout.
For `Cn1nc(NC(=O)c2cccnc2)c(Br)c1OC(F)F` [Compound I-1-47], in series [1] (LC-MS in the acidic range), the “log P (acid)” value worked out at 1.13.
With `Cc1cc(N)nn1CC=C(Cl)Cl` [II-1-56], in series [1] (setting [2]), the “log P (acid)” value is on record as 1.13.
Take `O=C(Nc1cnn(-c2c(F)cccc2F)n1)c1cccnc1` [Compound I-3-24]: the “log P (acid)” value in series [1] (setting [5]) came to 1.67.
For `Cc1cc(N)nn1Cn1nc(C)n(C)c1=O` [II-1-46], in series [1] (setting [2]), the “log P (acid)” value is given as under −0.23.
Take `Cn1nc(NC(=O)c2cccnc2)c(C#N)c1[S+](C)[O-]` (stereo not shown) [Compound I-1-141]: the “log P (acid)” value in series [1] (LC-MS in the acidic range) was 0.06.
Turning to `Cc1cc([N+](=O)[O-])nn1-c1ncccn1` [2-(5-Methyl-3-nitro-1H-pyrazol-1-yl)pyrimidine], the chromatographic logP in series [1] (setting [4]) was 1.41.
As for `C#CCn1nc(N)cc1C1CC1` [II-1-4], in series [1] (setting [2]), the “log P (acid)” value came to 0.63.
As for `Cc1cc(NC(=O)c2cccnc2)nn1-c1ccccn1` [Compound I-1-230], the “log P (acid)” value in series [1] (LC-MS in the acidic range) is 2.19.
Turning to `CCCCNC(=O)Cn1nnc(NC(=O)c2cccnc2)n1` [Compound I-4-11], the “log P (acid)” value in series [1] (setting [7]) worked out at 0.97.
Regarding `Cc1cn(Cc2ncccn2)nc1N1C(=O)c2ccccc2C1=O` [2-[4-Methyl-1-(pyrimidin-2-ylmethyl)-1H-pyrazol-3-yl]-1H-isoindole-1,3(2H)-dione], the chromatographic logP in series [1] (setting [4]) was 1.58.
With `COc1ccc(C(=O)Nc2cc(C)n(Cc3ccccc3F)n2)cn1` [Compound I-1-105], the “log P (acid)” value in series [1] (LC-MS in the acidic range) came to 2.52.
As for `CCn1nnc(NC(=O)c2cccnc2)n1` [Compound I-4-1], the “efficacy (kill in %)” value in the series on Myzus persicae (setting [6]) came to 100%.
Take `COC(=O)CCCn1nc(NC(=O)c2cccnc2)cc1C` [Compound I-1-67]: the “efficacy (kill in %)” value in the series on Myzus persicae (setting [9]) and in the series with Myzus persicae (setting [6]) was 100% throughout.
`O=C(Nc1ccn(-c2ccc(F)cc2F)n1)c1cccnc1` [Compound I-1-85]: the “efficacy (kill in %)” value with Myzus persicae (setting [9]) and in the series with Myzus persicae (setting [6]) was 100% each time.

Values taken from US20160106102A1, “KNOWN AND NEW HETEROCYCLIC COMPOUNDS AS PEST CONTROL AGENTS” (BAYER CROPSCIENCE AKTIENGESELLSCHAFT, priority 2013, published 2016).
